According to patent US11117900B2 (Vertex Pharmaceuticals Incorporated, priority 2012, dated 2021):

These compounds were tested on HCT116 colorectal cancer cells (assay: Cisplatin sensitization assay (96 h MTS cell viability)). Details: Cisplatin sensitization value.
Type: cell-based
Summary of the method: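 The MTS viability read, after 1 h with reagent, followed 96 h of co-treatment at 37° C. in 5% CO2. Both compound and cisplatin were titrated 2-fold from a 10 μM top final concentration in a complete concentration matrix on HCT116 cells. Scores +++/++/+ reflect cisplatin sensitization value ranges.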
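Further: compound concentration needed to lower the IC50 of Cisplatin alone by a set fold.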

SMILES | Cisplatin Sensitization Assay
Nc1nn2cc(F)cnc2c1C(=O)Nc1cnccc1N1CCN2C(=O)CC[C@H]2C1 [I-N-217, (S)-2-amino-6-fluoro-N-(4-(6-oxohexahydropyrrolo[1,2-a]pyrazin-2(1H)-yl)pyridin-3-yl)pyrazolo[1,5-a]pyrimidine-3-carboxamide] | ++ (Compounds with a Cisplatin sensitization value >0.02 μM but <0.2 μM are marked with “++.”)
Cc1nc(C)n(-c2ccncc2NC(=O)c2c(N)nn3cc(F)cnc23)n1 [I-N-218, 2-amino-N-(4-(3,5-dimethyl-1H-1,2,4-triazol-1-yl)pyridin-3-yl)-6-fluoropyrazolo[1,5-a]pyrimidine-3-carboxamide] | + (Compounds with a Cisplatin sensitization value >0.2 μM but <5 μM are marked with “+.”)
Nc1nn2cc(F)cnc2c1C(=O)Nc1cnccc1-n1ccnc1C(F)(F)F [I-N-219, 2-amino-6-fluoro-N-(4-(2-(trifluoromethyl)-1H-imidazol-1-yl)pyridin-3-yl)pyrazolo[1,5-a]pyrimidine-3-carboxamide] | +++ (Compounds with a Cisplatin sensitization value of <0.02 μM are marked with “+++.”)
CC1(C)CCCN1c1ccncc1NC(=O)c1c(N)nn2cc(F)cnc12 [I-N-220, 2-amino-N-(4-(2,2-dimethylpyrrolidin-1-yl)pyridin-3-yl)-6-fluoropyrazolo[1,5-a]pyrimidine-3-carboxamide] | ++ (Compounds with a Cisplatin sensitization value >0.02 μM but <0.2 μM are marked with “++.”)
CS(=O)(=O)C1CCCN(c2ccncc2NC(=O)c2c(N)nn3cc(F)cnc23)C1 (centres unmarked) [I-N-221, 2-amino-6-fluoro-N-(4-(3-(methylsulfonyl)piperidin-1-yl)pyridin-3-yl)pyrazolo[1,5-a]pyrimidine-3-carboxamide] | ++ (Compounds with a Cisplatin sensitization value >0.02 μM but <0.2 μM are marked with “++.”)
Nc1nn2cc(F)cnc2c1C(=O)Nc1cnccc1N1CC(=O)N2CCCC2C1 (centres unmarked) [I-N-222, 2-amino-6-fluoro-N-(4-(4-oxohexahydropyrrolo[1,2-a]pyrazin-2(1H)-yl)pyridin-3-yl)pyrazolo[1,5-a]pyrimidine-3-carboxamide] | ++ (Compounds with a Cisplatin sensitization value >0.02 μM but <0.2 μM are marked with “++.”)
Cc1ccnn1-c1ccncc1NC(=O)c1c(N)nn2cc(F)cnc12 [I-N-223, 2-amino-6-fluoro-N-(4-(5-methyl-1H-pyrazol-1-yl)pyridin-3-yl)pyrazolo[1,5-a]pyrimidine-3-carboxamide] | ++ (Compounds with a Cisplatin sensitization value >0.02 μM but <0.2 μM are marked with “++.”)
CN1C[C@@H]2CCN(c3ccncc3NC(=O)c3c(N)nn4cc(F)cnc34)C[C@@H]2C1=O [I-N-224, 2-amino-6-fluoro-N-(4-((3aR,7aR)-2-methyl-3-oxohexahydro-1H-pyrrolo[3,4-c]pyridin-5(6H)-yl)pyridin-3-yl)pyrazolo[1,5-a]pyrimidine-3-carboxamide] | + (Compounds with a Cisplatin sensitization value >0.2 μM but <5 μM are marked with “+.”)
Cc1ccn(-c2ccncc2NC(=O)c2c(N)nn3cc(F)cnc23)n1 [I-N-225, 2-amino-6-fluoro-N-(4-(3-methyl-1H-pyrazol-1-yl)pyridin-3-yl)pyrazolo[1,5-a]pyrimidine-3-carboxamide] | ++ (Compounds with a Cisplatin sensitization value >0.02 μM but <0.2 μM are marked with “++.”)
Nc1nn2cc(F)cnc2c1C(=O)Nc1cnccc1N1CCC2(CC1)COC2 [I-N-226, N-(4-(2-oxa-7-azaspiro[3.5]nonan-7-yl)pyridin-3-yl)-2-amino-6-fluoropyrazolo[1,5-a]pyrimidine-3-carboxamide] | +++ (Compounds with a Cisplatin sensitization value of <0.02 μM are marked with “+++.”)
CN1CCOCC1C(=O)N1CCN(c2c(F)cncc2NC(=O)c2c(N)nn3cc(F)cnc23)CC1 (centres unmarked) [I-N-227, 2-amino-6-fluoro-N-(5-fluoro-4-(4-(4-methylmorpholine-3-carbonyl)piperazin-1-yl)pyridin-3-yl)pyrazolo[1,5-a]pyrimidine-3-carboxamide] | +++ (Compounds with a Cisplatin sensitization value of <0.02 μM are marked with “+++.”)
Nc1nn2cc(F)cnc2c1C(=O)Nc1cncc(F)c1N1CCN(CC(=O)N2CCC2)CC1 [I-N-228, 2-amino-N-(4-(4-(2-(azetidin-1-yl)-2-oxoethyl)piperazin-1-yl)-5-fluoropyridin-3-yl)-6-fluoropyrazolo[1,5-a]pyrimidine-3-carboxamide] | +++ (Compounds with a Cisplatin sensitization value of <0.02 μM are marked with “+++.”)
CN1CC2(CCN(c3c(F)cncc3NC(=O)c3c(N)nn4cc(F)cnc34)CC2)OC1=O [I-N-229, 2-amino-6-fluoro-N-(5-fluoro-4-(3-methyl-2-oxo-1-oxa-3,8-diazaspiro[4.5]decan-8-yl)pyridin-3-yl)pyrazolo[1,5-a]pyrimidine-3-carboxamide] | +++ (Compounds with a Cisplatin sensitization value of <0.02 μM are marked with “+++.”)
Nc1nn2cc(F)cnc2c1C(=O)Nc1cnccc1N1CCC(N2CCCC2=O)CC1 [I-N-230, 2-amino-6-fluoro-N-(4-(4-(2-oxopyrrolidin-1-yl)piperidin-1-yl)pyridin-3-yl)pyrazolo[1,5-a]pyrimidine-3-carboxamide] | +++ (Compounds with a Cisplatin sensitization value of <0.02 μM are marked with “+++.”)
CN1CC2(CCC1=O)CCN(c1ccncc1NC(=O)c1c(N)nn3cc(F)cnc13)CC2 [I-N-231, 2-amino-6-fluoro-N-(4-(2-methyl-3-oxo-2,9-diazaspiro[5.5]undecan-9-yl)pyridin-3-yl)pyrazolo[1,5-a]pyrimidine-3-carboxamide] | +++ (Compounds with a Cisplatin sensitization value of <0.02 μM are marked with “+++.”)
Nc1nn2cc(F)cnc2c1C(=O)Nc1cncc(F)c1N1CC(=O)N2CCCC2C1 (centres unmarked) [I-N-232, 2-amino-6-fluoro-N-(5-fluoro-4-(4-oxohexahydropyrrolo[1,2-a]pyrazin-2(1H)-yl)pyridin-3-yl)pyrazolo[1,5-a]pyrimidine-3-carboxamide] | ++ (Compounds with a Cisplatin sensitization value >0.02 μM but <0.2 μM are marked with “++.”)
CN1CCN2CCN(c3ccncc3NC(=O)c3c(N)nn4cc(F)cnc34)CC2C1=O (centres unmarked) [I-N-233, 2-amino-6-fluoro-N-(4-(8-methyl-9-oxohexahydro-1H-pyrazino[1,2-a]pyrazin-2(6H)-yl)pyridin-3-yl)pyrazolo[1,5-a]pyrimidine-3-carboxamide] | ++ (Compounds with a Cisplatin sensitization value >0.02 μM but <0.2 μM are marked with “++.”)
CN(C)C(=O)C1CN(c2ccncc2NC(=O)c2c(N)nn3cc(F)cnc23)CCO1 (centres unmarked) [I-N-234, 4-(3-(2-amino-6-fluoropyrazolo[1,5-a]pyrimidine-3-carboxamido)pyridin-4-yl)-N,N-dimethylmorpholine-2-carboxamide] | + (Compounds with a Cisplatin sensitization value >0.2 μM but <5 μM are marked with “+.”)
CN1C(=O)CCC12CCN(c1ccncc1NC(=O)c1c(N)nn3cc(F)cnc13)CC2 [I-N-235, 2-amino-6-fluoro-N-(4-(1-methyl-2-oxo-1,8-diazaspiro[4.5]decan-8-yl)pyridin-3-yl)pyrazolo[1,5-a]pyrimidine-3-carboxamide] | ++ (Compounds with a Cisplatin sensitization value >0.02 μM but <0.2 μM are marked with “++.”)
CN1CC2(CCN(c3ccncc3NC(=O)c3c(N)nn4cc(F)cnc34)CC2)CC1=O [I-N-236, 2-amino-6-fluoro-N-(4-(2-methyl-3-oxo-2,8-diazaspiro[4.5]decan-8-yl)pyridin-3-yl)pyrazolo[1,5-a]pyrimidine-3-carboxamide] | +++ (Compounds with a Cisplatin sensitization value of <0.02 μM are marked with “+++.”)
Cc1cncc(NC(=O)c2c(N)nn3cc(F)cnc23)c1-n1nccc1C [I-N-237] | + (Compounds with a Cisplatin sensitization value >0.2 μM but <5 μM are marked with “+.”)
Nc1nn2cc(F)cnc2c1C(=O)Nc1cnccc1N1CCN2C(=O)OCC2C1 (centres unmarked) [I-N-238, 2-amino-6-fluoro-N-(4-(3-oxotetrahydro-1H-oxazolo[3,4-a]pyrazin-7(3H)-yl)pyridin-3-yl)pyrazolo[1,5-a]pyrimidine-3-carboxamide] | ++ (Compounds with a Cisplatin sensitization value >0.02 μM but <0.2 μM are marked with “++.”)
Nc1nn2cc(F)cnc2c1C(=O)Nc1cncc(F)c1N1CCC2(CC1)COC2 [I-N-239, 2-amino-6-fluoro-N-(5-fluoro-4-(2-oxa-7-azaspiro[3.5]nonan-7-yl)pyridin-3-yl)pyrazolo[1,5-a]pyrimidine-3-carboxamide] | +++ (Compounds with a Cisplatin sensitization value of <0.02 μM are marked with “+++.”)
CN1CCN2CCN(c3c(F)cncc3NC(=O)c3c(N)nn4cc(F)cnc34)CC2C1=O (centres unmarked) [I-N-240, 2-amino-6-fluoro-N-(5-fluoro-4-(8-methyl-9-oxohexahydro-1H-pyrazino[1,2-a]pyrazin-2(6H)-yl)pyridin-3-yl)pyrazolo[1,5-a]pyrimidine-3-carboxamide] | ++ (Compounds with a Cisplatin sensitization value >0.02 μM but <0.2 μM are marked with “++.”)
Nc1nn2cc(F)cnc2c1C(=O)Nc1cnccc1N1CCC(c2ncon2)CC1 [I-N-241, N-(4-(4-(1,2,4-oxadiazol-3-yl)piperidin-1-yl)pyridin-3-yl)-2-amino-6-fluoropyrazolo[1,5-a]pyrimidine-3-carboxamide] | +++ (Compounds with a Cisplatin sensitization value of <0.02 μM are marked with “+++.”)
Cc1ncnn1-c1c(F)cncc1NC(=O)c1c(N)nn2cc(F)cnc12 [I-N-242, 2-amino-6-fluoro-N-(5-fluoro-4-(5-methyl-1H-1,2,4-triazol-1-yl)pyridin-3-yl)pyrazolo[1,5-a]pyrimidine-3-carboxamide] | + (Compounds with a Cisplatin sensitization value >0.2 μM but <5 μM are marked with “+.”)
